Here are results for eight compounds from PubChem BioAssay (NCI).

Common to all, as to assay: NCI tumour cell line growth inhibition, 48 h
The subject of assay [1] is MOLT-4 leukemia.
Assay [2] has as its system SW-620 colon.
The test system of assay [3] is ACHN renal.
The test system of assay [4] is SF-268 CNS.
Assay [5] concerns OVCAR-5 ovarian.
Assay [6] has as its system K-562 leukemia.
For assay [7], the system named is M14 melanoma.
The subject of assay [8] is COLO 205 colon.
Assay [9] relates to SNB-19 CNS.
In assay [10] the test system is LOX IMVI melanoma.

Each structure is given as a SMILES string. Where “and” joins values, the source holds several entries; their conditions need not be identical. Equal values may be shown once.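 Cultured in 96-well plates, cells were exposed to test compound for 48 hours across five concentrations. GI50 = concentration required for 50% inhibition of growth. At the TGI there is no net growth.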

Regarding `OCC1OC(n2cnc3cc(Cl)c(Cl)cc32)C(O)C1O` (configuration not stated), the GI50 in assay [1] is 3.85 µM; in [2], 30.3 µM; in assay [3], 12.7 µM; in [4], 30.7 µM; in [5], 8.01 µM; in [6], 44.8 µM. In addition, the GI50 in assay [7] was 9.36 µM; in [8] it was 23.8 µM; in [9], 25.3 µM; in [10], 12.1 µM. For the same compound, the TGI in assay [1] is over 41.3 µM; in assay [2], over 76.7 µM; in assay [3], 34.6 µM; in [4], over 87.9 µM; in assay [5], 36.5 µM; in assay [6], over 100 µM. The TGI was 32.5 µM in assay [7], over 84.5 µM in assay [8], over 100 µM in assay [9] and 29 µM in [10].

Turning to `OCC1OC(NO)C(O)C(O)C1O` (configuration not stated), the TGI in assay [1], in assay [2], in assay [3], in assay [4], in assay [5] and in assay [6] was over 100 µM each time. Further, the TGI in [7], in assay [8], in assay [9] and in [10] was over 100 µM throughout.

Turning to `Clc1ccc(Nc2nnc(COc3ccccc3)c3ccccc23)cc1`, the GI50 in assay [1] is 1.06 µM; in assay [2], 2.86 µM; in assay [3], 2.35 µM; in assay [4], 2.23 µM; in [5], 3.88 µM; in [6], 1.85 µM. Also, the GI50 in assay [7] was 0.918 µM; in assay [8], 0.456 µM; in [9], 3.2 µM; in assay [10], 1.29 µM. For the same compound, the TGI in assay [1] came out at 6.7 µM; in assay [2], 7.79 µM; in [3] it was 25 µM; in assay [4], 12.9 µM; in [5], 15.4 µM; in [6], 11.9 µM. The TGI in assay [7] amounted to 5.03 µM; in assay [8], 4.38 µM; in assay [9], 12 µM; in [10] it was 4.85 µM.

As for `Cn1cc(-c2nc(-c3c[nH]c4ccccc34)cs2)c2cccnc21`, the GI50 in assay [1] is 0.757 µM; in [2], 0.221 µM; in [3], 0.527 µM; in [4] it was 0.689 µM; in assay [5], 2.11 µM; in assay [6], 0.106 µM. In addition, the GI50 is 0.234 µM in [7], 0.188 µM in [8], 0.53 µM in assay [9] and 0.628 µM in assay [10]. Also, the TGI in [1] is over 60.3 µM; in assay [2], over 100 µM; in [3], over 100 µM; in assay [4], over 100 µM; in [5] it was over 100 µM; in [6] it was over 100 µM. The TGI in assay [7] is over 54.2 µM; in assay [8], 1.03 µM; in assay [9] it was over 100 µM; in [10] it was over 100 µM.

Turning to `CN1C(=O)CC(CC(=O)C2CCCCC2=O)CC1=O` (configuration not stated), the TGI in [1], in assay [2], in assay [3], in assay [4], in [5] and in assay [6] was over 100 µM throughout. The TGI in [7], in [8], in assay [9] and in [10] was over 100 µM in each case.

On to `NC(=O)C1CCCN1Cc1ccc2c(c1)OCO2` (configuration not stated), for which the TGI in [1], in [2], in assay [3], in assay [4], in assay [5] and in assay [6] was over 100 µM each time. Besides, the TGI in [7], in assay [8], in [9] and in assay [10] was over 100 µM in each case.

`CCn1c(C)nc([N+](=O)[O-])c1Sc1ncc[nH]1`: the TGI in assay [1] is 76.8 µM; in assay [2] it was over 100 µM; in assay [3], over 100 µM; in [4] it was over 100 µM; in [5], over 100 µM; in [6], over 100 µM. Further, the TGI in assay [7] is over 100 µM; in [8], over 100 µM; in assay [9] it was over 100 µM; in assay [10] it was 42.2 µM.

Turning to `C/C=C1/CN2CCC34c5ccccc5N5C(=O)C(C6CC78c9ccccc9N9C(=O)C=CC(C%10CC7N6C/C%10=C/C)C98)=CC(C1CC23)C54` (configuration not stated), the TGI in assay [1] is 5.56 µM; in [2] it was 5.45 µM and 11.8 µM; in assay [3] it was 13.6 µM and 24.3 µM; in assay [4] it was 17.7 µM and 17.2 µM; in assay [5] it was 19.9 µM and 34.6 µM; in assay [6], 50 µM. The TGI in [7] was 11.9 µM and 13.8 µM; in [8], 12.4 µM and 26.6 µM; in [9] it was 15.2 µM and 30 µM; in assay [10], 26 µM. Also, the GI50 in assay [2] was 3.32 µM; in assay [3], 11.7 µM; in [4], 4.3 µM; in assay [5], 19.3 µM; in assay [7] it was 3.81 µM; in assay [8] it was 8.74 µM. For the same compound, the GI50 in assay [9] was 14.8 µM.
